Experimental findings from ChEMBL document CHEMBL1144826, “Selective vasodilatation effect of sargahydroquinoic acid, an active constituent of Sargassum micracanthum, on the basilar arteries of rabbits” (Bioorg Med Chem Lett, 2008) are described below.

As usually defined, the EC50 is the midpoint of the concentration-response curve. High values mean weaker potency, low ones greater potency.

Assay [1] can be described thus: Vasodialative effect on high K+-induced vasoconstriction in rabbit basilar artery. It is filed as functional, tissue-based, Oryctolagus cuniculus.
Assay [2] is described as follows: Vasodialative effect on high K+-induced vasoconstriction in rabbit carotid artery. The format is functional, Oryctolagus cuniculus.
The nature of assay [3]: Selectivity index, ratio of EC50 for vasodialative effect on high K+-induced vasoconstriction in rabbit carotid artery to basilar artery. It is filed as functional, Oryctolagus cuniculus.

In the case of `CC(C)=CCC/C(=C/CC/C(C)=C/CC/C(C)=C/Cc1cc(O)cc(C)c1O)C(=O)O` [SARGAHYDROQUINOIC ACID], the EC50 in assay [1] came out at 11.8 µM; in assay [2] it was 140 µM. Besides, in assay [3], the “Ratio EC50” value is given as 11.9.
